Measured values: US20120053235A1, “Dihydromyricetin as an IKK-beta inhibitor used for treatment of arthritis, cancer and autoimmune conditions, and other diseases or disorders” (HONG KONG BAPTIST UNIVERSITY, priority 2010, published 2012)

Experiments:
[1] = tested on: IKK-α/β phosphorylation in human T lymphocytes; test: Measurement of the phosphorylation of IKK α/β (Western blot); assay type: cell-based; settings: mediated by PMA/ionomycin or anti-OKT-3/anti-CD28; FIG. 4B
Protocol: Human T lymphocytes (4×10^6/well) were pretreated with DMY in different concentrations for 60 minutes and then the cells were stimulated with PMA/ionomycin for 30 minutes.
The whole-cell lysates were prepared by lysing the harvested T cells with lysis buffer (50 mM Tris-HCl, pH 7.5, 250 mM NaCl, 5 mM EDTA, 1 mM DTT, 1% Triton, 50 mM NaF, 1 mM sodium orthovanadate, 0.5 mM PMSF and 1× protease inhibitor mix, Roche). Protein concentrations were determined by using Bio-Rad Protein assay (Bio-Rad Laboratories, Inc. Hercules, Calif.). Equal amount of nuclear proteins or whole-cell lysates were analyzed by 10% SDS-polyacrylamide gel electrophoresis (SDS-PAGE). After electrophoresis, the proteins were electro-transferred to the nitrocellulose membranes. After proteins were transferred, the membranes were blocked by 5% dried milk for 60 minutes and then washed three times for 5 minutes in washing interval with TBS-T (Tween-20, 0.05%). The membranes were then incubated with phosphorylation-IKK-α/β primary antibodies overnight at 4° C. and then washed three times with TBS-T. Afterwards, the membranes were incubated again with HRP-conjugated secondary antibodies for 60 minutes. The blots were developed using the enhanced chemiluminescence (ECL, Amersham Bioscience).

[2] = target: T1, His-tagged recombinant human IKK-β (Homo sapiens, UniProt O14920); test: IKK activity assay (K-LISA IKK-β-Inhibitor Screening Kit); assay type: biochemical; settings: DMY at 50 μM and 100 μM; FIG. 4A
T1 construct: His; purchased Calbiochem
T1 sequence (O14920 1-756): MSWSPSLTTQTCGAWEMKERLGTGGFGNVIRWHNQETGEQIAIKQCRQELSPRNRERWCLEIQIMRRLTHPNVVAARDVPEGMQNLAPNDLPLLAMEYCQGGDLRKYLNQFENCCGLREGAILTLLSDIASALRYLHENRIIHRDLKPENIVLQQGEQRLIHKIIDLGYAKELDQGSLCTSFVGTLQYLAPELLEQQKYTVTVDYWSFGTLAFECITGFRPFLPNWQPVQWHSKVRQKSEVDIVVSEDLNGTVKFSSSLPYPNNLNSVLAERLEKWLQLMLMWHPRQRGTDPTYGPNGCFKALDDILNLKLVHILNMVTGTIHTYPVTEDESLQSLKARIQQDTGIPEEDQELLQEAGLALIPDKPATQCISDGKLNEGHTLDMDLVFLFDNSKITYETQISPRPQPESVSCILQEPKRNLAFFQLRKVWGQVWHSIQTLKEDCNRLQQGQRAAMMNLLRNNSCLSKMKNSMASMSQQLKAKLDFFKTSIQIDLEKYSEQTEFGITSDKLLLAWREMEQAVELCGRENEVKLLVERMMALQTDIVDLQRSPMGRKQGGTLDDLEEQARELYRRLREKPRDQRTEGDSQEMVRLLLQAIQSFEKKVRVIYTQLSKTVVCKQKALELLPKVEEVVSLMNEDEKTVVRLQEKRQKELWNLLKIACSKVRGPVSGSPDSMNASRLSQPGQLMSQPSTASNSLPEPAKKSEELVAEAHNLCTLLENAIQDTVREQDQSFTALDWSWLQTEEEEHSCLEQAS
Protocol: The direct inhibitory effect of DMY on IKK activity was examined by using K-LISA™ IKK-β-Inhibitor Screening Kit (Calbiochem). Both the glutathione-S-transferase (GST)-IκB-α substrate and His-tagged recombinant human IKK-β were incubated with or without DMY in the wells of a glutathione-coated 96-well plate. The reaction was terminated with the addition of kinase stop solution after being incubated at 30° C. for 30 minutes. Then, anti-Phospho IκB-α (Ser32/Ser36) antibody was used to determine the phosphorylated GST-IκB-α substrate, and the horse radish peroxidase (HRP)-conjugated color was developed by 3,3′,5,5′-tetramethylbenzidine (TMB) substrate. ELISA stop solution was used to stop the color development and the absorbance was measured at 450 nm the wavelength at which was directly related to the level of IKK activity.

[3] = tested on: ear edema induced by dinitrofluorobenzene in male ICR mice; test: Delay-type hypersensitivity test (DNFB-induced ear edema); assay type: in vivo
Protocol: Male mice were sensitized through topical application of 20 μl of 0.5% (v/v) dinitrofluorobenzene (DNFB) in acetone onto the shaved abdomen on days 1 and 2. Challenge was then preformed in day 6 by applying DNFB (20 μl, 0.5%, v/v) on the left inner and outer ear surfaces of mice. DMY (at doses of 0.5, 1, 2 mg/ear) and DEX (0.025 mg/ear, Sigma-Aldrich) dissolved in acetone was topically applied (20 μl) to the ears at 2nd, 24th, 48th, and 72nd hour after the challenge. The mice were sacrificed by cervical dislocation, and then the same area of the ears was punched from each animal. Spleens and thymuses were isolated and weighted. The ear edema was calculated according to the differences between the weight of the right and left ears. The control group was treated only with DNFB.

[4] = tested on: c-Jun nuclear translocation in human T lymphocytes; test: c-Jun nuclear translocation assay (Western blot); assay type: cell-based; settings: pretreated 1 hour, PMA plus ionomycin 120 minutes
Protocol: For c-Jun and c-Fos nuclear translocation assays, the human T lymphocytes (6×10^6/well) were pretreated with DMY for 1 hour, and then stimulated with 20 ng/ml PMA plus […] ionomycin for 120 minutes. After the cells were harvested and washed with PBS twice, the nuclear proteins of cells were then prepared using NucBuster™ Reagents. Afterwards, the washed cells were re-suspended using 60 μl NucBuster™ Reagent 1 per 30 μl of packed cells and processed twice by vortexing for 15 seconds, and followed by the incubation on ice for 5 minutes and second vortexing for 15 seconds, and finally centrifuged at 16000 g for 5 minutes. The supernatants containing cytoplasmic proteins were discarded; the cell pellets were re-suspended in 45 μl of NucBuster Extraction Reagent 2. The same vortexing, icing, and repeated vortexing steps were repeated once to prepare the nuclear proteins of the cells.
Protein concentrations were determined by using Bio-Rad Protein assay. Equal amounts of nuclear proteins or whole-cell lysates were analyzed by 10% SDS-PAGE. After electrophoresis, the proteins were electro-transferred to the nitrocellulose membranes. […]

[5] = DTHT mice, topical treatment, FIGS. 9B and C

For O=C1c2c(O)cc(O)cc2O[C@H](c2cc(O)c(O)c(O)c2)[C@H]1O [DMY, dihydromyricetin], the IKK-α/β phosphorylation [1] was “inhibit IKK-ca/3 phosphorylation”, the “activity of IKK-β” value [2] was “significantly inhibited the activity of IKK-β” and the body weight ([3]; DTHT mice, topical treatment) was “only a small decrease”. For the same molecule, the spleen weight [3, 5] was “increase”, the thymus weight [3, 5] was “increase” and the ear edema ([3]; topical, 0.5, 1, 2 mg/ear at 2nd, 24th, 48th, 72nd hour after challenge, FIG. 9A) was “significantly and dose-dependently inhibit the ear edema”. The “nuclear translocation of c-Jun” value [4] was “suppress nuclear translocation”.
